In patent US11485714B2, “Hydroxyethylamine-based piperazine compounds, and methods of producing and using the same for treating disease” (National Institute of Immunology, priority 2020, dated 2022):
Like-named read-outs stand apart in the source and are kept apart here.

Experiments:
[1] = system: P. falciparum CQ-sensitive (Pf3D7); assay: SYBR Green I assay, asynchronous cultures, CQ-sensitive clone; assay type: cell-based; details: Plasmodium falciparum
Method: Initially, antimalarial activity of Compound I was assessed on asynchronous cultures of P. falciparum sensitive (Pf3D7) clone using the SYBR Green assay. […] DMSO was used as a vehicle control, CQ (Chloroquine), DOX (Doxycycline) and DHA (Dihydroartemisinin).

[2] = system: L. donavani infected THP1 cells; assay: Calcium levels in L. donavani infected THP1 cells (Fluo4-AM); assay type: cell-based, Leishmania donovani; details: 10 μM, within few seconds, preliminary
Method: A macrophage differentiated cell culture of THP1 cell lines by phorbol 12-myristate 13-acetate (PMA) concentration of 15 ng/ml was established on 15 mm glass bottom petri dishes. The confluent cells were infected with leishmania promastigotes in 1:5 ratio. The infected macrophages were washed after 24 hr.
Incubation was conducted to remove uninfecting promastigotes with same RPMI medium with 6% FCS. The culture was then washed twice in HEPES-buffered saline solution (HBSS) (in mM: 25 HEPES, 121 NaCl, 5 NaHCO3, 4.7 KCl, 1.2 KH2PO4, 1.2 MgSO4, 2.0 CaCl2), 10 glucose, 0.04 probenecid, and 0.25% (w/v) fatty acid-free BSA, pH 7.4). The culture was switched to the same buffer with Fluo4-AM (1×), Hoechst 33258 (1×) and charged for 40 minutes. The cells were then washed in same buffer without dye and mounted on the stage of inverted LSM 510 Zeiss, […], 1.4 NA, oil-immersion objective, zoom 4-6, z-stacks of […] thin optical sections, 4-8× average, 2,000×2,000 pixel window, range indicator used for optimized illumination, and 488, 543, 633 laser lines used for excitation. Compounds Miltefosine, Amphotericin B, calxinin and DMSO were added during time-course experiments. Preliminary results of Amastigotes treated with DMSO (negative control) and treated Compound 1 (10 μM) were generated.

[3] = In vivo acute toxicity study and pathological examination; set-up: species or system BALB/C mice
Excerpt: Again mice were randomly divided in two groups. Each group consisted of 3 mice.
Mice were divided into two groups of three mice. […] Again Mice were randomly divided in two groups. Each group consisted of 3 mice. […] Serum was taken for biochemistry studies.

[4] = system: P. falciparum CQ-resistant (PfDd2); assay: SYBR Green I assay, asynchronous cultures, CQ-resistant clone; assay type: cell-based; details: Plasmodium falciparum
[5] = In vitro cytotoxicity, Huh 7.1 (Alamar Blue); assay type: cell-based; details: human, Huh 7.1 cells; read-out: CC50 (50% cell toxicity)
Method: In addition, the cell viability of Huh 7 and HEK293 cells was evaluated post drug exposure using the Alamar Blue assay [Riss, Terry L., et al. “Cell viability assays.” Assay Guidance Manual [Intenet]. Eli Lilly & Company and the National Centre for Advancing Translational Sciences, 2016]. Cells ([…]) were exposed to varying concentrations of test compounds, for 24 hours in 96-well plate format along with 10/100 μL Alamar Blue solution (10×=4.8 mM in phosphate buffer) per well. […] Results from the cytotoxicity assays were expressed as CC50 at which 50% of the cells died/metabolically slowed down due to drug exposure compared to the non-treated and vehicular control.
The cytotoxicity of Compound I was tested by exposing peripheral blood mononuclear cells (PBMCs) to drug concentrations corresponding to averages of both Pf3D7 and PfDd2 IC50 values. This was intended to establish whether the observed antiparasitic effects of the compounds were due to non-specific inhibitory activity. […] The IC50 required for killing the parasite is <90 nM. Therefore, in order to be toxic for human cells we have to use over 650 fold concentration.

[6] = system: Leishmania donovani amastigotes; assay: Anti-leishmania activity, amastigotes in THP-1 macrophages; assay type: cell-based; details: 96 hours, read-out: IC50, L. donovani amastigotes in THP-1 macrophages
Method: To test the anti-leishmania activity, Leishmania donovani strains: L. donovani reporter expressing red fluorescent protein, DsRed2 transgenic L. donovani (LV82)15, obtained from Ohio State University. Columbus (OSUMC). Extracellular (Promastigotes) L. donovani parasites were maintained in M199 media supplemented with 15% heat-inactivated fetal bovine serum (HI-FBS), 20 mM HEPES, 100 U/ml of penicillin and streptomycin at pH 5.5 with 5% CO2. Cultures were constantly maintained in a 25° C. incubator. Anti-leishmanial activity was determined by incubating exponentially growing log-phase promastigotes with THP-1 macrophage for 24 h to infect. Following this, plates were washed to remove the uninfected promastigotes, STD drug and Calxinin were treated 96-well plates for 96 hours. Miltefosine and paromomycin, standard medications, serve as a positive control at equivalent concentrations. Morphological alterations in the amastigotes following treatment with drugs, were examined by fluorescent microscopy. Images were analyzed for percent parasite survival upon drug treatment and enumerated the IC50. The inhibition curve of Compound I was very similar to Amphotericin B (AmpB) and lower than the 2 standard drugs.

[7] = Hemostatic parameters, plasmatic and whole blood assays (thrombelastography)
Method: Studies were performed to assess the effect of Calxinin on hemostatic parameters using plasmatic and whole blood assays.

[8] = system: P. berghei ookinete (Pb-GFPcon); assay: In vitro ookinete inhibition assay; assay type: cell-based, Plasmodium berghei
Method: [3] In vitro Ookinete inhibition assay of Calxinin. To determine whether Compound I (Calxinin) is blocking the growth of the transmission stage of malaria GFP-expressing P. berghei ANKA constitutively (Pb-GFPcon), which expresses the GFP during all the developmental stages, was used during in vitro experiments. Compound I (Calxinin) was tested in nanomolar range for its ability to inhibit ookinete development. Early gametocyte stage was maintained in vitro by incubating in ookinete media containing Xanthrunic acid and various other nutrients (complete DMEM) and pH 8.0. For the inhibition assay, culture plates containing Calxinin at different concentrations were incubated for about 24 h at 19° C. on a shaker and in the dark. After 24 h, ookinete development was checked by generating blood smears from the cultures. Smears were fixed, stained with Giemsa and counted in a NIKON 80i microscope.
Example 13—In-vitro Ookinete inhibition assay Encouraged with notable potency against symptomatic asexual blood stage, liver stage, and gametocidal activity, transmission blocking efficacy of Compound I (Calxinin) was evaluated against ookinete. […] As the concentration of Compound I increases, the percentage of healthy parasite is reduced and the % of deformed parasite increases (FIG. 7B).

[9] = system: Field isolates from Kenya (P. falciparum infected blood); assay: Screening against freshly collected field isolates; assay type: cell-based; details: Plasmodium falciparum

NC(Cc1ccccc1)C(O)CN1CCN(Cc2ccc(C(F)(F)F)cc2)CC1 (centres unmarked) [Compound I]
IC50 ([1]; 3D7, read-out: IC50 against asexual stages, drug sensitive (CQ-sensitive) 3D7, text): 88 nM | IC50 ([1]; 72 h, read-out: Pf3D7 IC50, nM (±SD), asynchronous cultures, 37° C., 72 hours, SYBR Green I): 90 nM | IC50 ([1]; strain not specified, read-out: IC50 required for killing the parasite): < 90 nM | calcium levels of Macrophage+L. donavani [2]: changes in the calcium levels | pathological examination of liver, kidney, stomach ([3]; 300 mg/kg oral for four consecutive days): does not indicate an increase or decrease of Kuepfer cells in the liver, loss of structural integrity in the kidney or lining of stomach | toxicity overall ([3]; 1200 mg/kg (300 mg/kg for four consecutive days)): no indication of toxicity | behavior ([3]; oral): no behavior changes were observed | body weight ([3]; oral): remained constant | motor and feeding activities ([3]; oral): normal | IC50 ([4]; 72 h, read-out: PfDd2 IC50, nM (±SD)): 88 nM | IC50 ([4]; DD2, read-out: IC50 against asexual stages, drug resistant (CQ-resistant) DD2): 88 nM | IC50 ([4]; read-out: mean half maximal inhibitory concentration (IC50) for PfDd2): 88 nM | CC50 at 24 h [5]: 100000 nM | IC50 [6]: 79.8 nM | anticoagulant effect (hemostatic parameters) [7]: no adverse impact | clot formation by thrombelastography ([7]; up to 20 μg/ml): did not impact clot formation | ookinete morphology ([8]; 450 nanomolar): deformed and retarded Ookinete | IC50 ([8]; Plasmodium berghei, 24 h, 19° C.): ~150 nM | IC50 ([9]; read-out: Field isolates from Kenya IC50, nM (±SD)): 50 nM | IC50 ([9]; read-out: IC50 against freshly collected field isolates of P. falciparum infected blood): 643 nM
